Laboratory results published in PMC10779116, “Madurastatins with Imidazolidinone Rings: Natural Products or Side-Reaction Products from Extraction Solvents?” (International Journal of Molecular Sciences, 2023).

Tests used:
[1] = tested on: T. cruzi Y strain; test: Antiparasitic activity on T. cruzi: image-based intracellular amastigote assay in infected U2OS cells; type: cell-based, Trypanosoma cruzi; conditions: T. cruzi in U2OS host cells, 3 days, normalized by DMSO and benznidazole controls; for Inhibition norm. inf. ratio IC50: number of infected host cells; for IC50: Trypanosoma cruzi, 72 h, number of parasites in host cell cytoplasm, read-out: Inhibition norm. para. num. IC50
Experimental: All compounds isolated were tested against Trypanosoma cruzi and Leishmania donovani, using the liquid microdilution method. Madurastatins were not active against L. donovani at the highest concentration tested, showing IC50 values higher than 50 µM. […] Human osteosarcoma cell line U2OS (ATCC HTB-96) and rhesus monkey kidney epithelial cell LLM-MK2 (ATCC CCL-7) were purchased from the American Type Culture Collection (ATCC, Manassas, VA, USA). T. cruzi Y strain was maintained as tissue culture trypomastigotes (TCT) by infection to LLC-MK2 cell line. The U2OS human cell was cultivated in DMEM-high-glucose media supplemented with 10% heat-inactivated fetal bovine serum (FBS, Thermo Fisher Scientific, Waltham, MA, USA). To visualize amastigote replication, U2OS cells were seeded in a 384-well plate (4 × 10^3 cells/well) and infected with 5 × 10^4 TCT parasites in DMEM-low-glucose media supplemented with 2% heat-inactivated FBS as previously described. The reference drug 400 μM of benznidazole (positive control), 0.5% DMSO (negative control), and the tested samples were treated on the day of assay and then incubated for 3 days at 37 °C, 5% CO2. After incubation was completed, the cells and parasites were fixed with 4% paraformaldehyde (PFA), and the DNA was stained with 5 μM DRAQ5 (Biostatus, Shepshed, Leicestershire, UK) followed by image acquisition using an automated confocal microscope (Operetta CLS, PerkinElmer, Waltham, MA, USA) with a […] laser at 20× objective. The acquired images were analyzed with Columbus software (v2.3) (PerkinElmer) to quantify cell numbers, parasites numbers, and infection ratio. Data were normalized by positive and negative controls. The activity of the tested samples was determined in terms of IC50 and CC50 calculated with XLfit software (v5) (IDBS, Boston, MA, USA). The quality of the assay data was assessed with Z’ factor, assay windows, and CV [37].

[2] = tested on: U2OS cells; test: Host cell cytotoxicity (cell ratio) in the T. cruzi assay; type: cell-based, Human; conditions: number of U2OS host cells in T. cruzi assay, 3 days
From the text: Human osteosarcoma cell line U2OS (ATCC HTB-96) and rhesus monkey kidney epithelial cell LLM-MK2 (ATCC CCL-7) were purchased from the American Type Culture Collection (ATCC, Manassas, VA, USA). T. cruzi Y strain was maintained as tissue culture trypomastigotes (TCT) by infection to LLC-MK2 cell line. The U2OS human cell was cultivated in DMEM-high-glucose media supplemented with 10% heat-inactivated fetal bovine serum (FBS, Thermo Fisher Scientific, Waltham, MA, USA). To visualize amastigote replication, U2OS cells were seeded in a 384-well plate (4 × 10^3 cells/well) and infected with 5 × 10^4 TCT parasites in DMEM-low-glucose media supplemented with 2% heat-inactivated FBS as previously described. The reference drug 400 μM of benznidazole (positive control), 0.5% DMSO (negative control), and the tested samples were treated on the day of assay and then incubated for 3 days at 37 °C, 5% CO2. After incubation was completed, the cells and parasites were fixed with 4% paraformaldehyde (PFA), and the DNA was stained with 5 μM DRAQ5 (Biostatus, Shepshed, Leicestershire, UK) followed by image acquisition using an automated confocal microscope (Operetta CLS, PerkinElmer, Waltham, MA, USA) with a […] laser at 20× objective.
(§1) The acquired images were analyzed with Columbus software (v2.3) (PerkinElmer) to quantify cell numbers, parasites numbers, and infection ratio. Data were normalized by positive and negative controls. The activity of the tested samples was determined in terms of IC50 and CC50 calculated with XLfit software (v5) (IDBS, Boston, MA, USA). The quality of the assay data was assessed with Z’ factor, assay windows, and CV [37].

[3] = tested on: L. donovani MHOM/ET/67/HU3; test: Antiparasitic activity on L. donovani: image-based intracellular assay in infected differentiated THP-1 cells; type: cell-based, Leishmania donovani; conditions: L. donovani in PMA-differentiated THP-1 host cells, 3 days, normalized by controls; for Inhibition norm. inf. ratio IC50: number of infected host cells; for IC50: Leishmania donovani, 72 h, number of parasites in host cell cytoplasm, read-out: Inhibition norm. para. num. IC50
Experimental: All compounds isolated were tested against Trypanosoma cruzi and Leishmania donovani, using the liquid microdilution method. Madurastatins were not active against L. donovani at the highest concentration tested, showing IC50 values higher than 50 µM.
(§2) Human monocyte cell line THP-1 (ATCC TIB-202) was purchased from the American Type Culture Collection (ATCC). The assay for activity against L. donovani was performed as previously described. L. donovani MHOM/ET/67/HU3 was cultivated as promastigotes at 28 °C in M199 (Sigma-Aldrich, St. Louis, MO, USA) with 40 mM HEPES, 0.1 mM adenine, 0.0001% biotin, and 4.62 mM NaHCO3, supplemented with 10% heat-inactivated FBS and incubated 6 days before infection to enrich the proportion of metacyclic promastigotes. THP-1 was cultivated in RPMI medium (Thermo Fisher Scientific) supplemented with 10% heat-inactivated FBS and differentiated with 50 ng/mL of phorbol 12-myristate 13-acetate (PMA, Sigma-Aldrich) before infection. Purified L. donovani parasites were seeded with 1:20 infection ratio in 384-well plates and incubated for 24 h, then followed by the treatment of 4 μM amphotericin B (Sigma-Aldrich) as positive control, 0.5% DMSO as negative control, and tested samples. After additional incubation for 3 days at 37 °C, 5% CO2, the cells and parasites were fixed with 4% PFA and stained with 5 μM DRAQ5. Fluorescent images were acquired from each well using an automated confocal microscope (Operetta CLS) with a […] laser at 20× objective.
as §1

[4] = tested on: THP-1 cells; test: Host cell cytotoxicity (cell ratio) in the L. donovani assay; type: cell-based, Human; conditions: number of THP-1 host cells in L. donovani assay, 3 days
Experimental: as §2, §1

In the case of C[C@@H]1N(C)[C@@H](CCCN(O)C(=O)CCNC(=O)CNC(=O)[C@H]2COC(c3ccccc3O)=N2)C(=O)N1[C@H]1CCCN(O)C1=O [33-epi D1 (3), 33-epi-madurastatin D1], the “Inhibition norm. inf. ratio IC50” value [1] is reported as over 50 µM, the IC50 [1] is reported as 46.1 µM and the “Cell ratio (%) CC50” value [2] is reported as over 50 µM. For the same molecule, the “Inhibition norm. inf. ratio IC50” value [3] was over 50 µM, the IC50 [3] was over 50 µM and the “Cell ratio (%) CC50” value [4] was over 50 µM.

With CNC(CCCN(O)C(=O)CCNC(=O)CNC(=O)C1COC(c2ccccc2O)=N1)C(=O)NC1CCCN(O)C1=O (stereo not drawn) [C1 (1), madurastatin C1] the “Inhibition norm. inf. ratio IC50” value [1] was over 50 µM, the IC50 [1] was 30.8 µM and the “Cell ratio (%) CC50” value [2] was over 50 µM. The “Inhibition norm. inf. ratio IC50” value [3] was over 50 µM, the IC50 [3] was over 50 µM and the “Cell ratio (%) CC50” value [4] was over 50 µM.

CC1N(C)C(CCCN(O)C(=O)CCNC(=O)CNC(=O)C2COC(c3ccccc3O)=N2)C(=O)N1C1CCCN(O)C1=O (stereo not drawn) [D1 (4), madurastatin D1] was tested, and the “Inhibition norm. inf. ratio IC50” value [1] was over 50 µM, the IC50 [1] was 27.2 µM and the “Cell ratio (%) CC50” value [2] was 46.77 µM. The “Inhibition norm. inf. ratio IC50” value [3] was over 50 µM, the IC50 [3] was over 50 µM and the “Cell ratio (%) CC50” value [4] was over 50 µM.

For CN1C(CCCN(O)C(=O)CCNC(=O)CNC(=O)C2COC(c3ccccc3O)=N2)C(=O)N(C2CCCN(O)C2=O)C1(C)C (stereo not drawn) [D2 (5), madurastatin D2], the “Inhibition norm. inf. ratio IC50” value [1] was over 50 µM, the IC50 [1] was 8.93 µM and the “Cell ratio (%) CC50” value [2] was 24.74 µM. For the same molecule, the “Inhibition norm. inf. ratio IC50” value [3] was over 50 µM, the IC50 [3] was over 50 µM and the “Cell ratio (%) CC50” value [4] was over 50 µM.

In the case of CN1[C@@H](CCCN(O)C(=O)CCNC(=O)CNC(=O)[C@@H](CO)NC(=O)c2ccccc2O)C(=O)N([C@H]2CCCN(O)C2=O)C1(C)C [H2 (2), madurastatin H2], the “Inhibition norm. inf. ratio IC50” value [1] is reported as over 50 µM, the IC50 [1] is reported as over 50 µM and the “Cell ratio (%) CC50” value [2] is reported as over 50 µM. For the same molecule, the “Inhibition norm. inf. ratio IC50” value [3] was over 50 µM, the IC50 [3] was over 50 µM and the “Cell ratio (%) CC50” value [4] was over 50 µM.
